*1 amine or outer side, *2 acyl side, *3 side chain or, on linkers, in order; H or OH if unused. Where a SMILES comes first, the peptide text is derived from it. Side-chain parts run from the residue outwards. [ ]: non-standard residue; d: D form. The star is where a group is joined. C20 diacid = O=C(O)CCCCCCCCCCCCCCCCCCC(=O)*; C18 diacid = O=C(O)CCCCCCCCCCCCCCCCC(=O)*; γGlu = O=C(O)[C@H](CCC(=O)[*:2])N[*:1]; 4Pal = N[C@@H](Cc1ccncc1)C(=O)O; αMeL = CC(C)C[C@](C)(N)C(=O)O; Iva = CC[C@](C)(N)C(=O)O; Orn = NCCC[C@H](N)C(=O)O; AEEA = NCCOCCOCC(=O)O; Aib = CC(C)(N)C(=O)O
Assays:
[1] = target: T1, human GcgR (Homo sapiens, UniProt P47871); assay: [125I]-Glucagon binding, SPA with WGA beads, 0.1% bacitracin; settings: geometric mean, read-out: hGcgR Ki
T1 construct: expressed in transfected cells; crude membranes
T1 sequence (P47871 26-477): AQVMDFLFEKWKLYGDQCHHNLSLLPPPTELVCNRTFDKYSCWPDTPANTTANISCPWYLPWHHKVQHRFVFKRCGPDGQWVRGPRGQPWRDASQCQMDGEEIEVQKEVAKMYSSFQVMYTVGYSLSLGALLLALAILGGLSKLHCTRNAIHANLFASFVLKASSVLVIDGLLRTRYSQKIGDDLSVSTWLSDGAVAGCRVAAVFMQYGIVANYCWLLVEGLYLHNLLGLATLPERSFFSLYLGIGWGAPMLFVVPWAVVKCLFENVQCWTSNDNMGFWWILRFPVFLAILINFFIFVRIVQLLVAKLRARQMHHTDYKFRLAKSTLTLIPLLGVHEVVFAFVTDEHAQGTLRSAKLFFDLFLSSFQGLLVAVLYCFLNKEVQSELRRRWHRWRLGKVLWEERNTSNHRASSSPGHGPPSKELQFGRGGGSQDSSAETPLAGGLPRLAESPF
Summary of the method: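 SPA competition binding with WGA beads on crude membranes from HEK293 cells stably expressing hGcgR. Buffer: 25 mM HEPES pH 7.4, 2.5 mM CaCl2, 1 mM MgCl2, 0.1% bacitracin, 0.003% Tween-20; 10-point 3-fold dilutions, NSB with 1 μM Gcg.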

[2] = target: T2, human GLP-1 receptor (GLP-1R) (Homo sapiens, UniProt P43220); assay: cAMP functional assay (HTRF) in HEK293 cells in presence of 0.1% casein; type: cell-based; settings: HEK293 cells expressing human GLP-1R, geometric mean, read-out: hGLP1R cAMP Rel EC50 nM (SEM, n)
T2 construct: expressed in transfected cells; host or cells: HEK293
T2 sequence (P43220 24-463): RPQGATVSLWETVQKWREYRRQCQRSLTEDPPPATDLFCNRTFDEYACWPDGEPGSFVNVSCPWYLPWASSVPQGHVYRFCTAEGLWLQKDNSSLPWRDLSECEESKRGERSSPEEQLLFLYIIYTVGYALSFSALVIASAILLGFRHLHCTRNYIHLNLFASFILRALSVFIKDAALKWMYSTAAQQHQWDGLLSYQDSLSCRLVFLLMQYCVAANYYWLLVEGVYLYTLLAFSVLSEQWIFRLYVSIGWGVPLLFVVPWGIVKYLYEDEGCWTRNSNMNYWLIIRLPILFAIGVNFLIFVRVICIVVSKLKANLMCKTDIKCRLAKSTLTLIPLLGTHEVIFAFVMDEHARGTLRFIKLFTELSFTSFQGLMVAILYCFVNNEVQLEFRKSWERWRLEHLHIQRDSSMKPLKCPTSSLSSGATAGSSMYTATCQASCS

SMILES	Ki [1]	EC50 [2]
CC[C@H](C)[C@H](NC(=O)[C@H](Cc1ccccc1)NC(=O)[C@@H](NC(=O)CNC(=O)[C@H](CCC(=O)O)NC(=O)C(C)(C)NC(=O)[C@@H](N)Cc1ccc(O)cc1)[C@@H](C)O)C(=O)N[C@@H](CO)C(=O)N[C@@H](CC(=O)O)C(=O)N[C@@H](Cc1ccc(O)cc1)C(=O)N[C@@H](CO)C(=O)N[C@H](C(=O)N[C@@](C)(CC(C)C)C(=O)N[C@@H](CC(C)C)C(=O)N[C@@H](CC(=O)O)C(=O)N[C@@H](CCC(=O)O)C(=O)N[C@@H](CCCCNC(=O)COCCOCCNC(=O)COCCOCCNC(=O)CC[C@H](NC(=O)CCCCCCCCCCCCCCCCCCC(=O)O)C(=O)O)C(=O)N[C@@H](Cc1c[nH]cn1)C(=O)N[C@@H](CCC(N)=O)C(=O)NC(C)(C)C(=O)N[C@@H](CC(=O)O)C(=O)N[C@@H](Cc1ccccc1)C(=O)N[C@H](C(=O)N[C@@H](CCC(=O)O)C(=O)N[C@@H](Cc1ccncc1)C(=O)N[C@@H](CC(C)C)C(=O)N[C@@H](CC(C)C)C(=O)N[C@@H](C)C(=O)N[C@H](C(=O)NCC(=O)N1CCC[C@H]1C(=O)N[C@@H](CO)C(=O)N[C@@H](CO)C(=O)NCC(=O)N[C@@H](C)C(=O)N1CCC[C@H]1C(=O)N1CCC[C@H]1C(=O)N1CCC[C@H]1C(=O)N[C@@H](CO)C(N)=O)[C@@H](C)O)C(C)C)[C@@H](C)CC [Example 83] (H-Y[Aib]EGTFISDYSI[αMeL]LDEK([AEEA-AEEA-γGlu-C20 diacid])HQ[Aib]DFVE[4Pal]LLATGPSSGAPPPS-NH2)	> 958 nM	> 5000 nM
CC[C@H](C)[C@H](NC(=O)[C@H](Cc1ccccc1)NC(=O)[C@@H](NC(=O)CNC(=O)[C@H](CCC(=O)O)NC(=O)C(C)(C)NC(=O)[C@@H](N)Cc1ccc(O)cc1)[C@@H](C)O)C(=O)N[C@@H](CO)C(=O)N[C@@H](CC(=O)O)C(=O)N[C@@H](Cc1ccc(O)cc1)C(=O)N[C@@H](CO)C(=O)N[C@H](C(=O)N[C@@](C)(CC(C)C)C(=O)N[C@@H](CC(C)C)C(=O)N[C@@H](CC(=O)O)C(=O)N[C@@H](CCC(=O)O)C(=O)N[C@@H](CCCCNC(=O)COCCOCCNC(=O)COCCOCCNC(=O)CC[C@H](NC(=O)CCCCCCCCCCCCCCCCCCC(=O)O)C(=O)O)C(=O)N[C@@H](Cc1c[nH]cn1)C(=O)N[C@@H](CCC(N)=O)C(=O)NC(C)(C)C(=O)N[C@@H](CC(=O)O)C(=O)N[C@@H](Cc1ccccc1)C(=O)N[C@H](C(=O)N[C@@H](CCC(=O)O)C(=O)N[C@@H](Cc1ccncc1)C(=O)N[C@@H](CC(C)C)C(=O)N[C@@H](CC(C)C)C(=O)N[C@@H](C)C(=O)N[C@@H](CCC(N)=O)C(=O)NCC(=O)N1CCC[C@H]1C(=O)N[C@@H](CO)C(=O)N[C@@H](CO)C(=O)NCC(=O)N[C@@H](C)C(=O)N1CCC[C@H]1C(=O)N1CCC[C@H]1C(=O)N1CCC[C@H]1C(=O)N[C@@H](CO)C(N)=O)C(C)C)[C@@H](C)CC [Example 84] (H-Y[Aib]EGTFISDYSI[αMeL]LDEK([AEEA-AEEA-γGlu-C20 diacid])HQ[Aib]DFVE[4Pal]LLAQGPSSGAPPPS-NH2)	> 958 nM	> 5000 nM
CC[C@H](C)[C@H](NC(=O)[C@H](Cc1ccccc1)NC(=O)[C@@H](NC(=O)CNC(=O)[C@H](CCC(=O)O)NC(=O)C(C)(C)NC(=O)[C@@H](N)Cc1ccc(O)cc1)[C@@H](C)O)C(=O)N[C@@H](CO)C(=O)N[C@@H](CC(=O)O)C(=O)N[C@@H](Cc1ccc(O)cc1)C(=O)N[C@@H](CO)C(=O)N[C@H](C(=O)N[C@@](C)(CC(C)C)C(=O)N[C@@H](CC(C)C)C(=O)N[C@@H](CC(=O)O)C(=O)N[C@@H](CCC(=O)O)C(=O)N[C@@H](CCCCNC(=O)COCCOCCNC(=O)COCCOCCNC(=O)CC[C@H](NC(=O)CCCCCCCCCCCCCCCCCCC(=O)O)C(=O)O)C(=O)N[C@@H](Cc1c[nH]cn1)C(=O)N[C@@H](CCC(N)=O)C(=O)NC(C)(C)C(=O)N[C@@H](CC(=O)O)C(=O)N[C@@H](Cc1ccccc1)C(=O)N[C@H](C(=O)N[C@@H](CCC(=O)O)C(=O)N[C@@H](Cc1ccncc1)C(=O)N[C@@H](CC(C)C)C(=O)N[C@@H](CC(C)C)C(=O)N[C@@H](C)C(=O)N[C@@H](C)C(=O)NCC(=O)N1CCC[C@H]1C(=O)N[C@@H](CO)C(=O)N[C@@H](CO)C(=O)NCC(=O)N[C@@H](C)C(=O)N1CCC[C@H]1C(=O)N1CCC[C@H]1C(=O)N1CCC[C@H]1C(=O)N[C@@H](CO)C(N)=O)C(C)C)[C@@H](C)CC [Example 85]	800 nM	> 5000 nM
CC[C@H](C)[C@H](NC(=O)[C@H](Cc1ccccc1)NC(=O)[C@@H](NC(=O)CNC(=O)[C@H](CCC(=O)O)NC(=O)C(C)(C)NC(=O)[C@@H](N)Cc1ccc(O)cc1)[C@@H](C)O)C(=O)N[C@@H](CO)C(=O)N[C@@H](CC(=O)O)C(=O)N[C@@H](Cc1ccc(O)cc1)C(=O)N[C@@H](CO)C(=O)N[C@H](C(=O)N[C@@](C)(CC(C)C)C(=O)N[C@@H](CC(C)C)C(=O)N[C@@H](CC(=O)O)C(=O)N[C@@H](CCC(=O)O)C(=O)N[C@@H](CCCCNC(=O)COCCOCCNC(=O)COCCOCCNC(=O)CC[C@H](NC(=O)CCCCCCCCCCCCCCCCCCC(=O)O)C(=O)O)C(=O)N[C@@H](Cc1c[nH]cn1)C(=O)N[C@@H](CCC(N)=O)C(=O)NC(C)(C)C(=O)N[C@@H](CC(=O)O)C(=O)N[C@@H](Cc1ccccc1)C(=O)N[C@H](C(=O)N[C@@H](CCC(=O)O)C(=O)N[C@@H](Cc1ccncc1)C(=O)N[C@@H](CC(C)C)C(=O)N[C@@H](CC(C)C)C(=O)N[C@@H](C)C(=O)NCC(=O)NCC(=O)N1CCC[C@H]1C(=O)N[C@@H](CO)C(=O)N[C@@H](CO)C(=O)NCC(=O)N[C@@H](C)C(=O)N1CCC[C@H]1C(=O)N1CCC[C@H]1C(=O)N1CCC[C@H]1C(=O)N[C@@H](CO)C(N)=O)C(C)C)[C@@H](C)CC [Example 86]	462 nM	> 5000 nM
CC[C@H](C)[C@H](NC(=O)[C@H](Cc1ccccc1)NC(=O)[C@@H](NC(=O)CNC(=O)[C@H](CCC(=O)O)NC(=O)C(C)(C)NC(=O)[C@@H](N)Cc1ccc(O)cc1)[C@@H](C)O)C(=O)N[C@@H](CO)C(=O)N[C@@H](CC(=O)O)C(=O)N[C@@H](Cc1ccc(O)cc1)C(=O)N[C@@H](CO)C(=O)N[C@H](C(=O)N[C@@](C)(CC(C)C)C(=O)N[C@@H](CC(C)C)C(=O)N[C@@H](CC(=O)O)C(=O)N[C@@H](CCCN)C(=O)N[C@@H](CCCCNC(=O)COCCOCCNC(=O)COCCOCCNC(=O)CC[C@H](NC(=O)CCCCCCCCCCCCCCCCC(=O)O)C(=O)O)C(=O)N[C@@H](Cc1c[nH]cn1)C(=O)N[C@@H](CCC(N)=O)C(=O)NC(C)(C)C(=O)N[C@@H](CC(=O)O)C(=O)N[C@@H](Cc1ccccc1)C(=O)N[C@H](C(=O)N[C@@H](CCC(=O)O)C(=O)N[C@@H](Cc1ccncc1)C(=O)N[C@@H](CC(C)C)C(=O)N[C@@H](CC(C)C)C(=O)N[C@@H](CCC(=O)O)C(=O)N[C@@H](C)C(=O)NCC(=O)N1CCC[C@H]1C(=O)N[C@@H](CO)C(=O)N[C@@H](CO)C(=O)NCC(=O)N[C@@H](C)C(=O)N1CCC[C@H]1C(=O)N1CCC[C@H]1C(=O)N1CCC[C@H]1C(=O)N[C@@H](CO)C(N)=O)C(C)C)[C@@H](C)CC [Example 87] (H-Y[Aib]EGTFISDYSI[αMeL]LD[Orn]K([AEEA-AEEA-γGlu-C18 diacid])HQ[Aib]DFVE[4Pal]LLEAGPSSGAPPPS-NH2)	576 nM	> 5000 nM
CC[C@H](C)[C@H](NC(=O)[C@H](CO)NC(=O)[C@H](Cc1ccc(O)cc1)NC(=O)[C@H](CC(=O)O)NC(=O)[C@H](CO)NC(=O)[C@@H](NC(=O)[C@](C)(CC)NC(=O)[C@@H](NC(=O)CNC(=O)[C@H](CCC(=O)O)NC(=O)C(C)(C)NC(=O)[C@@H](N)Cc1ccc(O)cc1)[C@@H](C)O)[C@@H](C)CC)C(=O)N[C@@](C)(CC(C)C)C(=O)N[C@@H](CC(C)C)C(=O)N[C@@H](CC(=O)O)C(=O)N[C@@H](CCCCN)C(=O)N[C@@H](CCCCNC(=O)COCCOCCNC(=O)COCCOCCNC(=O)CC[C@H](NC(=O)CCCCCCCCCCCCCCCCCCC(=O)O)C(=O)O)C(=O)N[C@@H](Cc1c[nH]cn1)C(=O)N[C@@H](CCC(N)=O)C(=O)NC(C)(C)C(=O)N[C@@H](CC(=O)O)C(=O)N[C@@H](Cc1ccccc1)C(=O)N[C@H](C(=O)N[C@@H](CCC(=O)O)C(=O)N[C@@H](Cc1ccncc1)C(=O)N[C@@H](CC(C)C)C(=O)N[C@@H](CC(C)C)C(=O)N[C@@H](CCC(=O)O)C(=O)N[C@@H](C)C(=O)NCC(=O)N1CCC[C@H]1C(=O)N[C@@H](CO)C(=O)N[C@@H](CO)C(=O)NCC(=O)N[C@@H](C)C(=O)N1CCC[C@H]1C(=O)N1CCC[C@H]1C(=O)N1CCC[C@H]1C(=O)N[C@@H](CO)C(N)=O)C(C)C [Example 88] (H-Y[Aib]EGT[Iva]ISDYSI[αMeL]LDKK([AEEA-AEEA-γGlu-C20 diacid])HQ[Aib]DFVE[4Pal]LLEAGPSSGAPPPS-NH2)	788 nM	> 5000 nM
CC[C@H](C)[C@H](NC(=O)[C@H](CC(C)C)NC(=O)[C@@H](NC(=O)CNC(=O)[C@H](CCC(=O)O)NC(=O)C(C)(C)NC(=O)[C@@H](N)Cc1ccc(O)cc1)[C@@H](C)O)C(=O)N[C@@H](CO)C(=O)N[C@@H](CC(=O)O)C(=O)N[C@@H](Cc1ccc(O)cc1)C(=O)N[C@@H](CO)C(=O)N[C@H](C(=O)N[C@@](C)(CC(C)C)C(=O)N[C@@H](CC(C)C)C(=O)N[C@@H](CC(=O)O)C(=O)N[C@@H](CCCCN)C(=O)N[C@@H](CCCCNC(=O)COCCOCCNC(=O)COCCOCCNC(=O)CC[C@H](NC(=O)CCCCCCCCCCCCCCCCCCC(=O)O)C(=O)O)C(=O)N[C@@H](Cc1c[nH]cn1)C(=O)N[C@@H](CCC(N)=O)C(=O)NC(C)(C)C(=O)N[C@@H](CC(=O)O)C(=O)N[C@@H](Cc1ccccc1)C(=O)N[C@H](C(=O)N[C@@H](CCC(=O)O)C(=O)N[C@@H](Cc1ccncc1)C(=O)N[C@@H](CC(C)C)C(=O)N[C@@H](CC(C)C)C(=O)N[C@@H](CCC(=O)O)C(=O)N[C@@H](C)C(=O)NCC(=O)N1CCC[C@H]1C(=O)N[C@@H](CO)C(=O)N[C@@H](CO)C(=O)NCC(=O)N[C@@H](C)C(=O)N1CCC[C@H]1C(=O)N1CCC[C@H]1C(=O)N1CCC[C@H]1C(=O)N[C@@H](CO)C(N)=O)C(C)C)[C@@H](C)CC [Example 89] (H-Y[Aib]EGTLISDYSI[αMeL]LDKK([AEEA-AEEA-γGlu-C20 diacid])HQ[Aib]DFVE[4Pal]LLEAGPSSGAPPPS-NH2)	611 nM	> 5000 nM

Source: patent US12723063B2, “GIPR-agonist compounds” (Eli Lilly and Company, priority 2019, dated 2026)
